In ChEMBL document CHEMBL1142920, “Second generation of 5-ethenylbenzofuroxan derivatives as inhibitors of Trypanosoma cruzi growth: synthesis, biological evaluation, and structure-activity relationships” (Bioorg Med Chem, 2007):

Tests used:
THP-1 = experiment: Cytotoxicity against human THP1 cells assessed as reduction of cell viability after 48 hrs; assay type: cell-based; conditions: THP-1, 48 h
Trypanosoma cruzi [1] = experiment: Antitrypanosomatid activity against Trypanosoma cruzi Y epimastigotes assessed as reduction of growth after 5 days; assay type: functional, organism-based; conditions: 120 h
[2] = Ratio of IC50 for human THP1 cells to IC50 for Trypanosoma cruzi Tulahuen 2 epimastigotes; assay type: functional, THP-1
[3] = Ratio of IC50 for human THP1 cells to IC50 for Trypanosoma cruzi Y epimastigotes; assay type: functional, THP-1
[4] = Ratio of IC50 for human THP1 cells to IC50 for Trypanosoma cruzi CL Brener epimastigotes; assay type: functional, THP-1
Trypanosoma cruzi [5] = experiment: Antitrypanosomatid activity against Trypanosoma cruzi CL Brener epimastigotes assessed as reduction of growth after 5 days; assay type: functional, organism-based; conditions: 120 h
Trypanosoma cruzi [6] = experiment: Antitrypanosomatid activity against Trypanosoma cruzi Tulahuen 2 epimastigotes assessed as reduction of growth after 5 days; assay type: functional, organism-based; conditions: Tulahuen 2, 120 h

Which IC50 (THP-1) does the source give for `[O-][n+]1onc2cc(C=Cc3ccc4c(c3)OCO4)ccc21` here?
The IC50 was 81 µM.

With `[O-][n+]1onc2cc(C=Cc3ccc(Cl)cc3)ccc21` as the compound, how does the IC50 (Trypanosoma cruzi [1]) read?
Its IC50 is 9 µM.

And the “Ratio IC50” value [2]?
The value was 15.5.

What about the IC50 (THP-1) of the same compound?
Its IC50 is 66.7 µM.

What about the “Ratio IC50” value [3] of the same compound?
The value was 7.4.

And the “Ratio IC50” value [4]?
Its value is 8.9.

And the IC50 (Trypanosoma cruzi [5])?
The IC50 was 7.5 µM.

Which IC50 (Trypanosoma cruzi [1]) does the source give for `[O-][n+]1onc2cc(/C=C/c3ccc4c(c3)OCO4)ccc21` here?
Its IC50 is 7.3 µM.

And the IC50 (Trypanosoma cruzi [6])?
The IC50 was 5.3 µM.

What about the “Ratio IC50” value [2] of the same compound?
Its value is 41.5.

What about the IC50 (THP-1) of the same compound?
The IC50 was 220 µM.

And the “Ratio IC50” value [3]?
Its value is 30.1.

And the “Ratio IC50” value [4]?
The value was 24.4.

And the IC50 (Trypanosoma cruzi [5])?
The IC50 was 9 µM.

Which IC50 (Trypanosoma cruzi [1]) does the source give for `C(=C\c1ccc2nonc2c1)/c1ccc2c(c1)OCO2` here?
The IC50 was over 25 µM.

And the IC50 (Trypanosoma cruzi [6])?
Its IC50 is over 25 µM.

And the IC50 (Trypanosoma cruzi [5])?
The IC50 was over 25 µM.

For `C(=C/c1ccc2nonc2c1)/c1ccc2c(c1)OCO2`, which IC50 (Trypanosoma cruzi [1]) is on record?
Its IC50 is over 25 µM.

What about the IC50 (Trypanosoma cruzi [6]) of the same compound?
The IC50 was over 25 µM.

And the “Ratio IC50” value [2]?
The value was under 40.

What about the IC50 (THP-1) of the same compound?
The IC50 was over 400 µM.

What about the “Ratio IC50” value [3] of the same compound?
Its value is under 40.

What about the “Ratio IC50” value [4] of the same compound?
Its value is under 40.

And the IC50 (Trypanosoma cruzi [5])?
The IC50 was over 25 µM.

Which IC50 (Trypanosoma cruzi [1]) does the source give for `CN(C)c1ccc(/C=C/c2ccc3c(c2)no[n+]3[O-])cc1` here?
The IC50 was 22 µM.

And the IC50 (Trypanosoma cruzi [6])?
Its IC50 is 15.7 µM.

And the “Ratio IC50” value [2]?
Its value is over 25.

And the IC50 (THP-1)?
The IC50 was over 400 µM.

What about the “Ratio IC50” value [3] of the same compound?
Its value is over 18.

And the “Ratio IC50” value [4]?
Its value is over 90.

What about the IC50 (Trypanosoma cruzi [5]) of the same compound?
Its IC50 is 4.4 µM.

For `CN(C)c1ccc(/C=C/c2ccc3nonc3c2)cc1`, which IC50 (Trypanosoma cruzi [6]) is on record?
The IC50 was over 25 µM.

And the IC50 (Trypanosoma cruzi [5])?
Its IC50 is over 25 µM.

With `O=C(O)c1ccc(/C=C/c2ccc3c(c2)no[n+]3[O-])cc1` as the compound, how does the IC50 (Trypanosoma cruzi [6]) read?
The IC50 was over 25 µM.

Which IC50 (Trypanosoma cruzi [6]) does the source give for `O=C(O)c1ccc(/C=C\c2ccc3c(c2)no[n+]3[O-])cc1` here?
Its IC50 is over 25 µM.

With `N#Cc1ccc(/C=C\c2ccc3c(c2)no[n+]3[O-])cc1` as the compound, how does the IC50 (Trypanosoma cruzi [6]) read?
Its IC50 is over 25 µM.

With `O=[N+]([O-])c1ccccc1/C=C/c1ccc2c(c1)no[n+]2[O-]` as the compound, how does the IC50 (Trypanosoma cruzi [6]) read?
The IC50 was 26.4 µM.

What about the IC50 (Trypanosoma cruzi [5]) of the same compound?
The IC50 was 11.1 µM.

With `[O-][n+]1onc2cc(/C=C/c3cccc(F)c3)ccc21` as the compound, how does the IC50 (Trypanosoma cruzi [1]) read?
Its IC50 is 7.5 µM.

And the IC50 (Trypanosoma cruzi [6])?
The IC50 was 2.5 µM.

What about the IC50 (Trypanosoma cruzi [5]) of the same compound?
The IC50 was 10 µM.

What does the source list for `[O-][n+]1onc2cc(/C=C/c3ccc(Br)cc3)ccc21`?
IC50 (Trypanosoma cruzi [1]): 5.5 µM; IC50 (Trypanosoma cruzi [6]): 8.7 µM; IC50 (Trypanosoma cruzi [5]): 2.5 µM

With `[O-][n+]1onc2cc(/C=C/C3CCCCC3)ccc21` as the compound, how does the IC50 (Trypanosoma cruzi [6]) read?
Its IC50 is 13.6 µM.

What does the source list for `CCCC/C=C/c1ccc2c(c1)no[n+]2[O-]`?
IC50 (Trypanosoma cruzi [6]): 19.7 µM; IC50 (Trypanosoma cruzi [5]): 12.8 µM

For `O=[N+]([O-])c1ccc(/C=C/c2ccc3c(c2)no[n+]3[O-])s1`, which IC50 (Trypanosoma cruzi [1]) is on record?
Its IC50 is 4.5 µM.

What about the IC50 (Trypanosoma cruzi [6]) of the same compound?
The IC50 was 6 µM.

What about the IC50 (Trypanosoma cruzi [5]) of the same compound?
Its IC50 is 3.5 µM.

Which IC50 (Trypanosoma cruzi [6]) does the source give for `[O-][n+]1onc2cc(/C=C\c3ccc4nonc4c3)ccc21` here?
The IC50 was over 25 µM.

Which results are given for `[O-][n+]1onc2cc(/C=C/c3ccncc3)ccc21`?
IC50 (Trypanosoma cruzi [1]): 24 µM; IC50 (Trypanosoma cruzi [6]): 15 µM

With `[O-][n+]1onc2cc(/C=C/c3ccc(Cl)cc3)ccc21` as the compound, how does the IC50 (THP-1) read?
Its IC50 is over 200 µM.

With `[O-][n+]1onc2cc(/C=C\c3ccccc3)ccc21` as the compound, how does the “Ratio IC50” value [2] read?
Its value is 8.9.

And the “Ratio IC50” value [3]?
The value was 7.

And the “Ratio IC50” value [4]?
Its value is 4.

Which IC50 (Trypanosoma cruzi [1]) does the source give for `[O-][n+]1onc2cc(/C=C/c3ccc(C(F)(F)F)cc3)ccc21` here?
The IC50 was 10 µM.

What about the IC50 (Trypanosoma cruzi [5]) of the same compound?
Its IC50 is 4.5 µM.

Which IC50 (Trypanosoma cruzi [1]) does the source give for `O=[N+]([O-])c1ccc(/C=C\c2ccc3c(c2)no[n+]3[O-])cc1` here?
The IC50 was 13.5 µM.

And the IC50 (Trypanosoma cruzi [5])?
The IC50 was 10.5 µM.

For `CC(=O)Nc1ccc(/C=C\c2ccc3c(c2)no[n+]3[O-])cc1[N+](=O)[O-]`, which IC50 (Trypanosoma cruzi [6]) is on record?
Its IC50 is 24 µM.

With `C=Cc1ccc2c(c1)no[n+]2[O-]` as the compound, how does the IC50 (Trypanosoma cruzi [6]) read?
Its IC50 is over 25 µM.

Which IC50 (Trypanosoma cruzi [1]) does the source give for `[O-][n+]1onc2cc(/C=C\c3ccc4c(c3)OCO4)ccc21` here?
Its IC50 is 8.5 µM.

And the IC50 (Trypanosoma cruzi [6])?
The IC50 was 2.9 µM.

What about the “Ratio IC50” value [2] of the same compound?
Its value is 41.4.

What about the IC50 (THP-1) of the same compound?
Its IC50 is 120 µM.

And the “Ratio IC50” value [3]?
Its value is 14.1.

And the “Ratio IC50” value [4]?
The value was 13.3.

And the IC50 (Trypanosoma cruzi [5])?
The IC50 was 9 µM.

With `COc1ccc(/C=C/c2ccc3c(c2)no[n+]3[O-])cc1` as the compound, how does the IC50 (Trypanosoma cruzi [1]) read?
Its IC50 is 8.5 µM.

And the IC50 (Trypanosoma cruzi [6])?
The IC50 was 8 µM.

And the IC50 (Trypanosoma cruzi [5])?
The IC50 was 5 µM.

Which IC50 (Trypanosoma cruzi [6]) does the source give for `COC(=O)/C=C/c1ccc2c(c1)no[n+]2[O-]` here?
The IC50 was over 25 µM.

Which IC50 (Trypanosoma cruzi [6]) does the source give for `O=[N+]([O-])c1ccccc1/C=C\c1ccc2c(c1)no[n+]2[O-]` here?
The IC50 was 24.4 µM.

And the IC50 (Trypanosoma cruzi [5])?
Its IC50 is 13.7 µM.

What does the source list for `[O-][n+]1onc2cc(/C=C/c3cccs3)ccc21`?
IC50 (Trypanosoma cruzi [1]): 12.2 µM; IC50 (Trypanosoma cruzi [6]): 0.6 µM; IC50 (Trypanosoma cruzi [5]): 15 µM

Which results are given for `[O-][n+]1onc2cc(/C=C/c3ccc(O)cc3)ccc21`?
IC50 (Trypanosoma cruzi [1]): 25 µM; IC50 (Trypanosoma cruzi [6]): 10.2 µM; IC50 (Trypanosoma cruzi [5]): 22.5 µM

With `N#Cc1ccc(/C=C/c2ccc3c(c2)no[n+]3[O-])cc1` as the compound, how does the IC50 (Trypanosoma cruzi [6]) read?
The IC50 was over 25 µM.

With `[O-][n+]1onc2cc(/C=C\c3ccc(Cl)cc3)ccc21` as the compound, how does the IC50 (THP-1) read?
The IC50 was 97 µM.

Which IC50 (THP-1) does the source give for `[O-][n+]1onc2cc(/C=C/c3ccccc3)ccc21` here?
Its IC50 is 149 µM.

What does the source list for `CC(=O)N1CCN(c2ccc(OCC3COC(Cn4ccnc4)(c4ccc(Cl)cc4Cl)O3)cc2)CC1` (stereo not given) [KETOCONAZOLE]?
Ratio IC50 [2]: 4.4; Ratio IC50 [3]: 4.5; Ratio IC50 [4]: 8.8

Which results are given for `CN(C/C=C/C#CC(C)(C)C)Cc1cccc2ccccc12` [TERBINAFINE]?
Ratio IC50 [3]: 7.4; Ratio IC50 [4]: 7.8
